Results from ChEMBL document CHEMBL1152844, “Synthesis and anti-HIV studies of 2- and 3-adamantyl-substituted thiazolidin-4-ones” (Eur J Med Chem, 2009).
Active and inactive are the calls of the source. The rule behind the calls is not given here.

How the values were obtained:
[1] = Selectivity index, ratio of CC50 for human CEM cells to EC50 for HIV1 3B; type: toxicity, cell-based, CCRF-CEM; details: read-out: Ratio CC50/EC50
[2] = system: Influenza A virus; experiment: Antiviral activity against Influenza virus type A H3N2 infected in MDCK cells; type: functional, organism-based
[3] = system: Sindbis virus; experiment: Antiviral activity against Sindbis virus infected in african green monkey Vero cells; type: functional, organism-based
[4] = system: Influenza A virus; experiment: Antiviral activity against Influenza virus type A H1N1 infected in MDCK cells; type: functional, organism-based
[5] = system: CCRF-CEM; experiment: Cytotoxicity against HIV-infected human CEM cells; type: cell-based; details: ccrf-cem
[6] = system: Vaccinia virus; experiment: Antiviral activity against Vaccinia virus infected in HEL cells; type: functional, organism-based; details: Orthopoxvirus vaccinia
[7] = system: Punta Toro virus; experiment: Antiviral activity against Punta Toro virus infected in african green monkey Vero cells; type: functional, organism-based
[8] = system: Human immunodeficiency virus 1; experiment: Antiviral activity against HIV1 3B infected in human CEM cells assessed as inhibition of virus-induced cytopathicity after 4 days; type: functional, organism-based; details: Human immunodeficiency virus 1, 3B, CCRF-CEM, 96 h
[9] = system: Vesicular stomatitis virus; experiment: Antiviral activity against Vesicular stomatitis virus infected in HEL cells; type: functional, organism-based
[10] = system: Human immunodeficiency virus 2; experiment: Antiviral activity against HIV2 ROD infected in human CEM cells assessed as inhibition of virus-induced cytopathicity after 4 days; type: functional, organism-based; details: Human immunodeficiency virus 2, ROD, CCRF-CEM, 96 h
[11] = system: Coxsackievirus B4; experiment: Antiviral activity against Coxsackievirus B4 infected in human HeLa cells; type: functional, organism-based
[12] = system: Human alphaherpesvirus 1; experiment: Antiviral activity against Herpes simplex virus type 1 infected in HEL cells; type: functional, organism-based
[13] = system: Human respirovirus 3; experiment: Antiviral activity against Parainfluenza virus type 3 infected in african green monkey Vero cells; type: functional, organism-based
[14] = system: Coxsackievirus B4; experiment: Antiviral activity against Coxsackievirus B4 infected in african green monkey Vero cells; type: functional, organism-based
[15] = system: Influenza B virus; experiment: Antiviral activity against Influenza virus type B infected in MDCK cells; type: functional, organism-based
[16] = system: Feline coronavirus; experiment: Antiviral activity against Feline coronavirus infected in crandel feline kidney cells; type: functional, organism-based
[17] = system: Human alphaherpesvirus 2; experiment: Antiviral activity against Herpes simplex virus type 2 infected in HEL cells; type: functional, organism-based
[18] = system: Respiratory syncytial virus; experiment: Antiviral activity against Respiratory syncytial virus infected in human HeLa cells; type: functional, organism-based
[19] = system: Mammalian orthoreovirus 1; experiment: Antiviral activity against Reovirus 1 infected in african green monkey Vero cells; type: functional, organism-based
[20] = system: Vesicular stomatitis virus; experiment: Antiviral activity against Vesicular stomatitis virus infected in human HeLa cells; type: functional, organism-based

Compound	selectivity ratio [1]	Activity [2]	Activity [3]	Activity [4]	CC50 [5]	Activity [6]	Activity [7]	EC50 [8]	Activity [9]	EC50 [10]	Activity [11]	Activity [12]	Activity [13]	Activity [14]	Activity [15]	Activity [16]	Activity [17]	Activity [18]	Activity [19]	Activity [20]
O=C1CSC(c2c(F)cccc2Cl)N1CC12CC3CC(CC(C3)C1)C2 (centres undefined)	10	inactive	inactive	inactive	20.2 µM	inactive	inactive	2 µM	inactive	≥ 10.5 µM	inactive	inactive	inactive	inactive	inactive	inactive	inactive	inactive	inactive	inactive
CN(C)CCN1C(=O)CSC1CC12CC3CC(CC(C3)C1)C2 (centres undefined)	< 1.4	inactive	inactive	inactive	77 µM	inactive	inactive	53 µM	inactive	≥ 62 µM	inactive	inactive	inactive	inactive	inactive	inactive	inactive	inactive	inactive	inactive
Cc1cc(C)nc(N2C(=O)CSC2CC23CC4CC(CC(C4)C2)C3)n1 (centres undefined)	3	inactive	inactive	inactive	27 µM	inactive	inactive	8.6 µM	inactive	30 µM	inactive	inactive	inactive	inactive	inactive	inactive	inactive	inactive	inactive	inactive
COc1cc(C2SCC(=O)N2CCC23CC4CC(CC(C4)C2)C3)cc(OC)c1OC (centres undefined)	1.4	inactive	inactive	inactive	11.3 µM	inactive	inactive	7.8 µM	inactive	6.5 µM	inactive	inactive	inactive	inactive	inactive	inactive	inactive	inactive	inactive	inactive
Cc1cc(N2C(=O)CSC2CC23CC4CC(CC(C4)C2)C3)nc(C)n1 (centres undefined)	< 1.9	inactive	inactive	inactive	22.1 µM	inactive	inactive	≥ 11.2 µM	inactive	≥ 11.2 µM	inactive	inactive	inactive	inactive	inactive	inactive	inactive	inactive	inactive	inactive
Cc1cccc(N2C(=O)CSC2CC23CC4CC(CC(C4)C2)C3)n1 (centres undefined)	1.9	inactive	inactive	inactive	35 µM	inactive	inactive	17.8 µM	inactive	21.9 µM	inactive	inactive	inactive	inactive	inactive	inactive	inactive	inactive	inactive	inactive
Cc1ccnc2c1NC(=O)c1cccnc1N2C1CC1 [NEVIRAPINE]					> 50 µM					> 50 µM										
Cc1cc(N2C(=O)CSC2C23CC4CC(CC(C4)C2)C3)nc(C)n1 (centres undefined)	< 1.6	inactive	inactive	inactive	94 µM	inactive	inactive	≥ 58.2 µM	inactive	≥ 58.2 µM	inactive	inactive	inactive	inactive	inactive	inactive	inactive	inactive	inactive	inactive
Cc1cc(C)nc(N2C(=O)CSC2CC23CC4CC(CC(C4)C2)C3)c1 (centres undefined)	< 2	inactive	inactive	inactive	115 µM	inactive	inactive	> 54 µM	inactive	≥ 54 µM	inactive	inactive	inactive	inactive	inactive	inactive	inactive	inactive	inactive	inactive
Cc1ccnc(N2C(=O)CSC2CC23CC4CC(CC(C4)C2)C3)n1 (centres undefined)	< 2.3	inactive	inactive	inactive	27.3 µM	inactive	inactive	≥ 11.6 µM	inactive	23.5 µM	inactive	inactive	inactive	inactive	inactive	inactive	inactive	inactive	inactive	inactive
O=C1CSC(CC23CC4CC(CC(C4)C2)C3)N1CCN1CCCC1 (centres undefined)	1.6	inactive	inactive	inactive	77 µM	inactive	inactive	48.7 µM	inactive	≥ 57 µM	inactive	inactive	inactive	inactive	inactive	inactive	inactive	inactive	inactive	inactive
Cc1cc(C)nc(N2C(=O)CSC2C23CC4CC(CC(C4)C2)C3)n1 (centres undefined)	182	inactive	inactive	inactive	122 µM	inactive	inactive	0.67 µM	inactive	≥ 58 µM	inactive	inactive	inactive	inactive	inactive	inactive	inactive	inactive	inactive	inactive
O=C1CSC(c2c(F)cccc2Cl)N1CCC12CC3CC(CC(C3)C1)C2 (centres undefined)	4.7	inactive	inactive	inactive	18.5 µM	inactive	inactive	3.8 µM	inactive	≥ 10.1 µM	inactive	inactive	inactive	inactive	inactive	inactive	inactive	inactive	inactive	inactive
O=c1[nH]cnc2c1ncn2[C@H]1CC[C@@H](CO)O1 [DIDANOSINE]	> 54				> 250 µM															
